Drawing on US9212182B2, “Bicyclic sulfonamide compounds as sodium channel inhibitors” (AMGEN INC., priority 2013, dated 2015), this text covers IC50 for eleven molecules.

The target of the assay is Nav 1.7 (Homo sapiens (Human), UniProt Q15858). The assay is described as follows: in-vitro Nav 1.7 PX (IC50). Type of assay: cell-based.

SMILES strings stand for the structures. Read-outs that look alike come from different tables or passages of the source.

Nav 1.7, sequence (Q15858 whole entry): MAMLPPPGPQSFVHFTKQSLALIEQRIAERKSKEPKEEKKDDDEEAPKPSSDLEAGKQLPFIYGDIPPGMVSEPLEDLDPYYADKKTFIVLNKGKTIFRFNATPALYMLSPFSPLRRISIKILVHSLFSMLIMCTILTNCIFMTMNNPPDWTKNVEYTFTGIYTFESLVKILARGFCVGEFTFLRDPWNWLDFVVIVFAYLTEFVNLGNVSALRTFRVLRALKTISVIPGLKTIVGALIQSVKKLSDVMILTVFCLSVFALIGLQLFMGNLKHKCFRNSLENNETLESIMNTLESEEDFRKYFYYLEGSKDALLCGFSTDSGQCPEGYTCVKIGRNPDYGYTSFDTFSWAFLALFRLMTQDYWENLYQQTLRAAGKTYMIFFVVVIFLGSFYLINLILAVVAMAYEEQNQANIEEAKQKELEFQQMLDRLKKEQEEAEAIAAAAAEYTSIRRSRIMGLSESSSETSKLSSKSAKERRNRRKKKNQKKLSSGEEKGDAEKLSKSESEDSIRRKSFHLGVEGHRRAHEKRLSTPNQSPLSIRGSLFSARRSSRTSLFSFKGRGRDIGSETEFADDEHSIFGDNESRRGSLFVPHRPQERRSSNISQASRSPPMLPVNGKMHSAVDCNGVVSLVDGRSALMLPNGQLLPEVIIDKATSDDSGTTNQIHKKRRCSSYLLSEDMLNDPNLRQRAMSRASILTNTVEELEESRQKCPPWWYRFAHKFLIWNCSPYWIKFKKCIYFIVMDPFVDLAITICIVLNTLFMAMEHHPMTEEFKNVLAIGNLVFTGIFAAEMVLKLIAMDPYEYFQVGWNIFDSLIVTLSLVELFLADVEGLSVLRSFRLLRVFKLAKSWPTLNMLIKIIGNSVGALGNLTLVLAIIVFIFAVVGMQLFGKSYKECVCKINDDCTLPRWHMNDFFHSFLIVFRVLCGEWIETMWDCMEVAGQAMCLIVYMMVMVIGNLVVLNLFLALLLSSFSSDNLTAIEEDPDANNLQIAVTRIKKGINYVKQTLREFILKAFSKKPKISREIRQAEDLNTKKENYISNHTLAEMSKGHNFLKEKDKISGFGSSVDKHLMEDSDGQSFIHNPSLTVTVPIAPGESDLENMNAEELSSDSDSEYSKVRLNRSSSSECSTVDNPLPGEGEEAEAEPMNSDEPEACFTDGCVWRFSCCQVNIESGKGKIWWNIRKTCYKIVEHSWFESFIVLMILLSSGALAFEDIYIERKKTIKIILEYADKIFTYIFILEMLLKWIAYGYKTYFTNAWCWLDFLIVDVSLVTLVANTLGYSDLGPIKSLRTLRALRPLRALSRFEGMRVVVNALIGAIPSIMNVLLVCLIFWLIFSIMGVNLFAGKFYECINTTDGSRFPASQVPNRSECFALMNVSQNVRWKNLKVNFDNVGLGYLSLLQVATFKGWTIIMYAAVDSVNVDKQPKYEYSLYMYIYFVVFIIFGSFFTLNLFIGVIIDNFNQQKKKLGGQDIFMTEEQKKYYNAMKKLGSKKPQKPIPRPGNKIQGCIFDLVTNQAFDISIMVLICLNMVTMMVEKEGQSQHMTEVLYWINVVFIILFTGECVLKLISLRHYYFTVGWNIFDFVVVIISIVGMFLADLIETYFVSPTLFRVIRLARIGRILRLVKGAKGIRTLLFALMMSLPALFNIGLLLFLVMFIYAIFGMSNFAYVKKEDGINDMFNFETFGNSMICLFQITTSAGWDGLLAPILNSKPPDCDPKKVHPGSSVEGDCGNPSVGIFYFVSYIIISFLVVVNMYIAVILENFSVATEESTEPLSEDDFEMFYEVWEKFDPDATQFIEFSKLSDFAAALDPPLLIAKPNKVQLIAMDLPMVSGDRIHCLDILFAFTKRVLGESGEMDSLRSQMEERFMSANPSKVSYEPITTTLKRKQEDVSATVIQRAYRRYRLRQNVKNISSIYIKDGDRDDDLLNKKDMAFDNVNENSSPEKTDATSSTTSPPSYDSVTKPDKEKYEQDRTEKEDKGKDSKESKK

As for `COc1cc(-c2ccc(C)c(C)c2)ccc1-n1c(=O)ccc2cc(S(=O)(=O)Nc3ccon3)ccc21` [Example 812, N-3-isoxazolyl-1-(3-methoxy-3′,4′-dimethyl-4-biphenylyl)-2-oxo-1,2-dihydro-6-quinolinesulfonamide], the midpoint of inhibition (in-vitro Nav 1.7 PX data), the IC50, lay at 73 nM.
On the same count and under the same terms, with `COc1nc(C#CC2CCCC2)c(Cl)cc1-n1c(=O)ccc2cc(S(=O)(=O)Nc3cccnn3)ccc21` [Example 646, 1-(5-chloro-6-(cyclopentylethynyl)-2-methoxy-3-pyridinyl)-2-oxo-N-3-pyridazinyl-1,2-dihydro-6-quinolinesulfonamide] the figure was 1100 nM.
Molecule `COc1cc(-c2cc(F)cc(Cl)c2)c(F)cc1-n1c(=O)ccc2cc(S(=O)(=O)Nc3cccnn3)ccc21` (atropisomer, axis not shown; (P)) [Example 542, (P)-1-(3′-chloro-2,5′-difluoro-5-methoxy-4-biphenylyl)-2-oxo-N-3-pyridazinyl-1,2-dihydro-6-quinolinesulfonamide] returned an IC50 of 7 nM.
On the same count and under the same terms, with `COc1nc(Oc2cccc(Cl)c2C)c(Cl)cc1-n1c(=O)ccc2cc(S(=O)(=O)Nc3ccon3)ccc21` [Example 1226, 1-(5-chloro-6-(3-chloro-2-methylphenoxy)-2-methoxy-3-pyridinyl)-N-3-isoxazolyl-2-oxo-1,2-dihydro-6-quinolinesulfonamide] the figure was 316 nM.
Same read-out and setting: with `COc1cc(-c2cccc(F)c2)c(Cl)cc1-n1c(=O)cc(C)c2cc(S(=O)(=O)Nc3ccon3)ccc21` [Example 567, 1-(2-chloro-3′-fluoro-5-methoxy-4-biphenylyl)-N-3-isoxazolyl-4-methyl-2-oxo-1,2-dihydro-6-quinolinesulfonamide] the figure was 162 nM.
`COc1cc(-c2cc(F)cc(C(F)(F)F)c2)ccc1-n1c(=O)ccc2cc(S(=O)(=O)Nc3cccnn3)ccc21` [Example 1095, 1-(3′-fluoro-3-methoxy-5′-(trifluoromethyl)-4-biphenylyl)-2-oxo-N-3-pyridazinyl-1,2-dihydro-6-quinolinesulfonamide]: 6 nM corresponded to half-maximal inhibition (in-vitro Nav 1.7 PX data) (IC50).
The molecule `O=c1ccc2cc(S(=O)(=O)Nc3ccon3)ccc2n1-c1cc(F)c(-c2cc(F)cc(F)c2)cc1OC1CNC1` [Example 670, 1-(5-(azetidin-3-yloxy)-2,3′,5′-trifluoro-[1,1′-biphenyl]-4-yl)-N-(isoxazol-3-yl)-2-oxo-1,2-dihydroquinoline-6-sulfonamide 2,2,2-trifluoroacetate] registered an IC50 of 39 nM.
Same read-out and setting: with `COc1cc(-c2ccc(Cl)c(C)c2)ccc1-n1c(=O)ccc2cc(S(=O)(=O)Nc3ccon3)ccc21` (atropisomer, axis not shown; (M)) [Example 431, (M)-1-(4′-chloro-3-methoxy-3′-methyl-4-biphenylyl)-N-3-isoxazolyl-2-oxo-1,2-dihydro-6-quinolinesulfonamide] the figure was 5050 nM.
Molecule `COc1cc(-c2ccc(Cl)c(F)c2)c(F)cc1-n1c(=O)ccc2cc(S(=O)(=O)Nc3ccon3)ccc21` (atropisomer, axis not shown; (M)) [Example 504, (M)-1-(4′-chloro-2,3′-difluoro-5-methoxy-4-biphenylyl)-N-3-isoxazolyl-2-oxo-1,2-dihydro-6-quinolinesulfonamide] came in with an IC50 (in-vitro PatchXpress (PX)) of 8 nM.
The molecule `COc1cc(-c2cccc(OC)c2Cl)c(F)cc1-n1c(=O)ccc2cc(S(=O)(=O)Nc3ccon3)ccc21` [Example 731, 1-(2′-chloro-2-fluoro-3′,5-dimethoxy-4-biphenylyl)-N-3-isoxazolyl-2-oxo-1,2-dihydro-6-quinolinesulfonamide] displayed an IC50 (in-vitro Nav 1.7 PX data) of 142 nM.
`COc1cc(-c2cc(F)cc(Cl)c2)c(F)cc1-n1c(=O)ccc2cc(S(=O)(=O)Nc3ncccn3)ccc21` (atropisomer, axis not shown; (P)) [Example 541, (P)-1-(3′-chloro-2,5′-difluoro-5-methoxy-4-biphenylyl)-2-oxo-N-2-pyrimidinyl-1,2-dihydro-6-quinolinesulfonamide] registered a concentration for half-maximal inhibition (IC50) of 18 nM.

By IC50 is commonly meant the concentration that gives 50% inhibition.
